In paper PMC8147781, “Discovery of Pyrrolidine-2,3-diones as Novel Inhibitors of P. aeruginosa PBP3” (Antibiotics, 2021):
In brackets after ≈: the same amount, converted by molar mass.

Legend:
[1] = molecular target: T1, PBP3 of P. aeruginosa (PaPBP3) (Pseudomonas aeruginosa, UniProt G3XD46); experiment: S2dfluo fluorescence transpeptidase assay; type: biochemical; settings: for IC50: 300 nM PaPBP3, 30 min preincubation, 37 °C, read-out: IC50 Determination with PaPBP3, S2dfluo Assay; for inhibition at 100 µM: read-out: PBP3 Inhibition at 100 µM (%)
T1 construct: P. aeruginosa PBP3 (amino acids 40 to 563); His-tag; made in house; host or cells: E. coli BL21 (DE3) Rosetta, plasmid pET41_PBP-3
Experimental: The assays were carried out in the presence of 5% DMSO and 0.01% Triton X100 to avoid the formation of colloidal structures and adsorption of protein and/or compounds to surfaces. The Z’-factor determined for the assay was 0.73 ± 0.28, indicating the suitability and robustness of the assay for high throughput screening (HTS) (Figure 1B,C).
The activity of soluble ^PaPBP3 (300 nM) was measured in the presence of 0.8 mM S2d, 1 mM D-alanine and 0.5 mM mBBr for 25 min by monitoring the increase in the fluorescence intensity of mBBr at Ex/Em: 394/490 nm using an Infinite M1000 microplate reader (Tecan, Männedorf, Switzerland). To test the effect of inhibitors, 100 µM or 0.8 to 100 µM of compounds diluted in 96% DMSO were incubated for 30 min and 450 rpm with 300 nM soluble PBP3. The incubation period was set to improve the binding of non-covalent inhibitors and 0.01% Triton X100 (Sigma-Aldrich, Taufkirchen, Germany) was added to prevent aggregation of compounds. The enzyme reaction was started by adding a substrate mix of 0.8 mM S2d and […]. The enzyme, compound and substrate mix were mixed 1:1, pipetted with a Liquidator 96 (Melter Toledo, Gießen, Germany) and the fluorescence intensity was directly monitored with an Infinite M1000 microplate reader (Tecan) at Ex/Em: 394/490 nm. The assay was performed in black, flat-bottom 96-well microplates (Greiner Bio-One, Kremsmünster, Austria) at 37 °C in Sorensen Phosphate Buffer (57 mM Na2HPO4 and 10 mM KH2PO4, pH 7.5 + 0.01% Triton X-100). The velocity of the PBP3 reaction was calculated in the presence of each concentration of compound and the velocity values were used to estimate IC50 by sigmoidal nonlinear regression, using Prism v.9 software (San Diego, CA, USA) and the velocity of the reaction at each concentration.

[2] = molecular target: T1, PBP3 of P. aeruginosa (PaPBP3); experiment: FP-Bocillin FL competition assay; type: binding; settings: 30 min preincubation before Bocillin FL, 37 °C; read-out: IC50 Determination with PaPBP3, FP-Bocillin FL Assay
Experimental: Bocillin FL is a fluorescent penicillin V derivate used as a competitor for PBP inhibitors.
Fluorescence polarisation (FP) experiments were carried out as described before. To determine the binding of Bocillin FL to PBP, 200 nM of ^PaPBP3 was incubated for 30 min with 100 nM of Bocillin FL (Thermo Fisher Scientific, Waltham, MA, USA). The fluorescence polarisation signal of free Bocillin FL was monitored in a Pherastar microplate reader (BMG Labtech, Ortenberg, Germany) in the polarisation mode with Ex/Em: 485/520 nm excitation and emission filters. Millipolarisation (mP) units were calculated using the MARS data analysis software v30.40.R2 (BMG Labtech, Ortenberg, Germany). All the experiments were done in Sorensen buffer at 37 °C using flat-bottom, black 96-well plates. […] Bocillin FL was diluted in Sorensen buffer and added to the reaction and directly measured for 30 min at 37 °C. The FP was continuously measured in the presence and absence of compound and enzyme. […] The estimated IC50 values were established by sigmoidal nonlinear regression, using Prims v.8 software.

E. coli Neumann = experiment: MIC broth microdilution, E. coli; type: cell-based; settings: Escherichia coli; Table S3; read-out: MIC (µM) E. coli Neumann
Experimental: (§1) MIC determination was performed via standard broth microdilution according to the Clinical & Laboratory Standards institute guidelines. Overnight colonies grown on BD-Columbia agar with 5% Sheep Blood (Becton Dickinson, Franklin Lakes, NJ, USA), were diluted in Mueller Hinton Broth 2 cation adjusted (MH+) medium (Thermo Fisher Scientific) to a concentration of 5 × 10^5 CFU/mL. Serial dilutions (1:2) of test compounds were incubated at 37 °C with 5 × 10^4 bacteria in a final volume of 100 μL. Sterile and growth controls in the presence of 1% DMSO and PMBN if the case, and the positive controls, aztreonam (AZT) and tigecycline (TIG) were included in the experiments (Table S4). The MICs were determined visually after 18 h at 37 °C and confirmed by the addition of 10% PrestoBlue (ThermoFisher Scientific) reagent according to the manufacture’s protocol. The fluorescence signal of PrestoBlue reagent was measured at Ex/Em: 550/595 nm after 30 min incubation at 37 °C using at a ClarioStar microplate reader (BMG Labtech). PrestoBlue reduction occurs in the presence of living cells and consequently turns red in colour and is highly fluorescent.

[3] = system: K. pneumoniae clinical isolate; experiment: MIC broth microdilution, K. pneumoniae; type: cell-based; settings: Klebsiella pneumoniae; Table S3
Experimental: as §1

A. baumannii ATCC15308 = experiment: MIC broth microdilution, A. baumannii; type: cell-based; settings: 10 µg/mL PMBN
Experimental: as §1

S. pneumoniae = experiment: MIC broth microdilution, S. pneumoniae; type: cell-based; settings: Streptococcus pneumoniae; Table S3; read-out: MIC (µM) S. pneumoniae
Experimental: as §1

B. subtilis 168 = experiment: MIC broth microdilution, B. subtilis; type: cell-based; settings: Bacillus subtilis, 168; Table S3
Experimental: as §1

S. aureus 133 = experiment: MIC broth microdilution, S. aureus; type: cell-based; settings: Staphylococcus aureus, 133; Table S3
Experimental: as §1

[4] = system: T-lymphoblast CCRF-CEM cell line; experiment: Cytotoxicity assay (PrestoBlue), CCRF-CEM; settings: CC50, 72 h
Experimental: (§2) We finally tested the cytotoxicity of the compounds against four eukaryotic cell lines (Table 2 and Table S5), NRK-52E, an epithelial kidney cell line of Rattus norvegicus; Hep G2, an human epithelial liver cell line; and two suspension cell lines: CCRF-CEM, a T lymphoblast; and H9, a cutaneous T lymphocyte cell line.
(§3) Cell lines stored at −120 °C were thawed to 37 °C and resuspended in 10 mL of medium pre-warmed to 37 °C. Cells were pelleted at 300× g for 10 min, and then resuspended in fresh medium, seeded in a T-75 culture flask, and placed in a CO2 incubator (37 °C with 5% CO2 tension). Once the cells reached approximately 70–80% confluency, they were then passaged regularly. The adherent cell lines NRK52E, HepG2 and Huh 7 were washed once with 10 mL DPBS and detached with Trypsin-EDTA for 5 to 7 min and resuspended in 15 mL of the appropriate medium. The suspension cell line CCRF-CEM were diluted and resuspended in fresh RPMI 1640 PAN medium. To calculate the cell density, the cell resuspensions were diluted 1:6 with DPBS. Equal volumes of cell suspension and Trypan Blue were mixed and gently loaded into a haemocytometer (INCYTO, 31056 Republic of Korea). In each experiment, cell concentrations were adjusted to reach a concentration of 2.5 × 10^3 cell/well for NRK52E, 5 × 10^3 cell/well for HepG2, 6.2 × 10^4 cell/well for CCRF-CEM and 3 × 10^3 for H9. The cells were incubated with decreasing concentration of compounds (1 µL in 96% DMSO) for 72 h at 37 °C with 5% CO2 tension. Cycloheximide, a cytotoxic compound that interferes with the translocation step in eukaryotic protein synthesis was used as a control for the experiments. The assay was carried out in flat-bottom, transparent 96-well plates. Cell viability was determined using the PrestoBlue reagent (Thermo Fisher Scientific, Waltham, MA, USA) according to the manufacture’s protocol. First, 10× PrestoBlue was added to each well to obtain a 1× solution, and incubated at 37 °C for 45 min. Then, fluorescence was measured at Ex/Em: 550/595 nm using a ClarioStar microplate reader (BMG Labtech). Cytotoxicity was determined as the percentage of the difference in absorbance of the untreated sample to the treated sample. CC50 was calculated using the values obtained in each concentration using the sigmoidal dose-response by Prism v.8. The media used in each cell line is detailed in Table S6.

[5] = system: Hep G2, epithelial liver cell line; experiment: Cytotoxicity assay (PrestoBlue), HepG2; settings: CC50, 72 h
Experimental: as §2, §3

[6] = system: NRK-52E, epithelial kidney cell line; experiment: Cytotoxicity assay (PrestoBlue), NRK52E; settings: CC50, 72 h
Experimental: as §2, §3

[7] = system: H9, cutaneous T lymphocyte cell line; experiment: Cytotoxicity assay (PrestoBlue), H9; settings: CC50, 72 h
Experimental: as §2, §3

T1 sequence (G3XD46 40-563): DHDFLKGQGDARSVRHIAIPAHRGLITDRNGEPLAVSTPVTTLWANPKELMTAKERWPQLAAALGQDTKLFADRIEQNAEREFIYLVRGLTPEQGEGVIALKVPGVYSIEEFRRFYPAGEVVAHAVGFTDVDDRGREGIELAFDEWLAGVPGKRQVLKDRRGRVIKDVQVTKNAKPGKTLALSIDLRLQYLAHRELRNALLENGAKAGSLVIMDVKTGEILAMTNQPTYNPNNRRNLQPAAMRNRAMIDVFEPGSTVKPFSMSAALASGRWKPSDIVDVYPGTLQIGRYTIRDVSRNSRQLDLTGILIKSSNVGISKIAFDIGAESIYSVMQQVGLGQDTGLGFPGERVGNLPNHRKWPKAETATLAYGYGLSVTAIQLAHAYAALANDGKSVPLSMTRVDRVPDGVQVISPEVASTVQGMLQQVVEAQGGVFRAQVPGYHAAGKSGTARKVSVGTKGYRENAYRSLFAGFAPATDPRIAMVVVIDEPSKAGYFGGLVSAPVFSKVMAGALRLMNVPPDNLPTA

Structure (SMILES) | IC50 [1] | inhibition at 100 µM [1] | IC50 [2] | Cytotoxicity CCRF-CEM [4] | Cytotoxicity effect (µM) Epithelial liver HepG2 [5] | Cytotoxicity effect (µM) Epithelial kidney NRK52E [6] | Cytotoxicity effect (µM) T-lymphocyte H9 [7] | other results
COc1ccc(C(=O)C2=C(O)C(=O)N(CCc3c(C)[nH]c4ccccc34)C2c2ccc(Cl)cc2)cc1 (stereo not drawn) [Compound 6] | 63 ± 4 µM | 92 ± 7% | 9 ± 6 µM |  |  |  |  | 
COc1ccc(C2=C(O)C(=O)N(c3nc(SCc4ccccc4)n[nH]3)C2c2ccccc2F)cc1 (stereo not drawn) [Compound 7] | 65 ± 19 µM | 62% | 58 ± 21 µM |  |  |  |  | 
COc1ccc(CN2C(=O)/C(=C(/C)O)C(=O)[C@@H]2COC(C)(C)C)c(OC)c1 [Compound 8] | 66 ± 16 µM |  | 93 ± 18 µM |  |  |  |  | 
CSc1ccc(C2c3c(oc4cc(C)cc(C)c4c3=O)C(=O)N2CC2CCCO2)cc1 (stereo not drawn) [Compound 9] | 99 ± 1 µM | 60% | 18 ± 3 µM |  |  |  |  | 
O=C(C1=C(O)C(=O)N(Cc2c[nH]c3ccccc23)C1c1ccc(Cl)cc1)c1ccc(Br)cc1 (stereo not drawn) [Compound 39] | 24 ± 7 µM |  | 11 ± 4 µM | >100 µM | > 100 µM | > 100 µM | > 100 µM | MIC (E. coli Neumann): > 100 µM; MIC [3]: > 100 µM; MIC (µM) A. baumanii ATCC15308 (A. baumannii ATCC15308): > 100 µM; MIC (S. pneumoniae): 25 µM (≈ 13 µg/mL); MIC (B. subtilis 168): > 100 µM; MIC (S. aureus 133): 25 µM (≈ 13 µg/mL)
C[C@@H]1C[C@@H]([C@H](O)CC2CC(=O)NC(=O)C2)C(=O)[C@@H](C)C1 [Cycloheximide, reference compound] |  |  |  | 0.66 ± 0.5 µM | 1.34 ± 0.7 µM | 0.20 ± 0.2 µM | 0.53 ± 0.3 µM | 
